Measured values published in patent publication US9351992B2, “Non-anticoagulant polysaccharide compositions” (MOMENTA PHARMACEUTICALS, INC., priority 2007, dated 2016).
Marks after values point to notes of the source that are not given here.

System: C170HM2 human colorectal tumor cells
Experiment: Colon cancer metastasis to the liver (orthotopic liver metastasis model)
Type: in vivo, MF1 nude (nu/nu) athymic mice
Experimental: Liver metastasis was initiated by intraperitoneal injection of C170HM2 human colorectal tumor cells into male MF1 nude (nu/nu) athymic mice. 5FU/leucovorin was used as a positive control.
C170HM2 cells were maintained in vitro in RPMI culture medium (Sigma) containing 10% (v/v) heat inactivated fetal bovine serum and 2 mM L-glutamine at 37° C. in 5% CO2 and humidified conditions. Cells from sub-confluent monolayers were harvested with 0.025% EDTA, washed in culture medium and re-suspended in sterile phosphate buffered saline, pH 7.4 (PBS) for in vivo administration. 1.5×10^6 cells in a volume of 1 ml were injected intraperitoneally into 65 mice, and the mice were allocated into treatment groups as below.
Treatment was initiated on day 1 following cell injection and continued until day 35 or until the clinical condition of the animal required termination. One mouse in group 6 was terminated on day 20 due to black tail, bruising, and very pale appearance. Groups and 6 missed one dose on day 5. No adverse affects of the test compounds in mice bearing the tumors were observed.
The study was terminated on day 35, and the tumors in the liver were excised and weighed.

[1] = 25 mg/kg i.v. days 1, 3, 5, 7, calculated in comparison to group 7 (untreated), not group 1
[2] = 25 mg/kg i.v., compared to the untreated control group (group 7)

With 5FU/leucovorin [5 FU/Leu] the “Mean tumor weight” value (25 mg/kg i.v. cycled on days 1, 3, 5, 7, liver tumors day 35) was 0.037 g, the “Mean tumor area (% of vehicle)” value [1] was 15.7 % of vehicle and the “Mean tumor weight (% of vehicle)” value [1] was 11.94* % of vehicle. The “Mean tumor area (mm^2)” value (25 mg/kg i.v. days 1, 3, 5, 7, cross-sectional area, day 35) was 13.12 mm^2, the “decrease in tumor cross-sectional area” value [2] was 84% and the “decrease of tumor weight in the liver” value [2] was “approximately 88%”. For the same substance, the “decrease in tumor size” value (25 mg/kg i.v., compared to the vehicle control group (group 1), not significant) was 62%.
